Read-outs that look alike come from different tables or passages of the source.
What was measured:
[1] = test system: GST-Shp2 PTP domain protein; type: biochemical
Method: All reactions were monitored by thin layer chromatography (TLC) or ^1H NMR. Some products, which could not be purified by simply washing, were purified by Flashmaster chromatography. […] After the purity and structure were confirmed, samples were tested for IC50 by DiFMUP assay, seen in Table 1, appended.
Curve fitting and IC50 were obtained using the GraphPad Prism program (GraphPad Software).

[2] = test system: Shp2 in MDA-MB-468 cells; type: cell-based
Method: (§1) To measure Shp2 PTP activity in immune complexes, cells were lysed in ice-cold PTP lysis buffer [25 mM Hepes, pH 7.4, 150 mM NaCl, 1 mM DTT, 2 mM EDTA, 0.5% Triton X-100, 1:50 diluted protease inhibitor cocktail (Roche, Basel, Switzerland)]. Cell lysate supernatants (0.2 mg/each) were incubated with an anti-Shp2 antibody (Santa Cruz Biotechnology, Santa Cruz, Calif.) or with an anti-Flag antibody M2 (Sigma-Aldrich, St. Louis, Mo.) plus protein G-Sepharose for 2 h at 4° C. Immunoprecipitates were washed twice with the PTP lysis buffer and twice with the Reaction Buffer A (25 mM Hepes, pH 7.4, 50 mM NaCl, 1 mM DTT, 0.05% Triton X-100). Each Shp2 immune complex was resuspended in 100 μl of reaction buffer containing 50 μM DiFMUP and incubated at room temperature for 20 min. After a brief centrifugation, supernatants were transferred into 96-well plates and the DiFMU fluorescence signal was measured. The remaining immune complex pellets were used for immunoblotting analysis of Shp2 protein.

[3] = test system: Shp2^E76K in TF-1/Shp2^E76K cells; type: cell-based
Method: as §1

[4] = test system: pISRE-Luc in HT-29 cells; assay: ISRE luciferase reporter assay; type: cell-based; conditions: 50 U/ml IFN-γ alone, 6 h
Method: Luciferase reporter assays were conducted using HT-29 cells (5×10^5 cells/each in 12-well plate) were co-transfected with 1.6 μg pISRE-Luc (Clontech, Mountain View, Calif.) and 0.4 μg β-gal plasmids with LipofectAMINE 2000 reagent. Eighteen hours after transfection, cells were incubated in fresh medium, pretreated with indicated concentrations of SPI-112Me or mocked treated for 2 h, and then stimulated with 50 U/ml IFN-γ for 6 h or left unstimulated. Luciferase and β-galactosidase activities were determined as described (Ren, et al., Shp2E76K mutant confers cytokine-independent survival of TF-1 myeloid cells by up-regulating Bcl-XL. J Biol Chem 2007; 282:36463-73). The luciferase activity was then normalized to β-galactosidase-galactosidase activity as an internal control for transfection efficiency.

[5] = test system: HT-29 cells; assay: Viable cell number (CellTiterGlo), 4 days, Bliss synergism; conditions: IFN-γ 100 U/ml alone
Method: TF-1/Shp2^E76K and HT-29 Cells (1,000 cells/well in triplicate) were plated in 96-well plates in RPMI160/10% FBS plus test agent(s) in a total volume of 100 μl. […] After incubation for 4 days at 37° C./5% CO2, relative viable cell number was measured using the CelltiterGlo reagent (Promega) following the supplier's instruction.
Assume X is the fraction of inhibition caused by the first agent, Y is the fraction of inhibition caused by the second agent, and Z is the fraction of inhibition caused by the combination of both agents,
If Z=X+Y−XY, then the effect of two agents is additive.
If Z>X+Y−XY, then the effect of two agents is synergistic.
If Z<X+Y−XY, then the effect of two agents is antagonistic.

`O=C(c1ccc(Cl)c(Cl)c1)N1CCc2cc(S(=O)(=O)N3CCN(c4cccc(Cl)c4)CC3)ccc21` [JF023] showed an IC50 [1] of 7.1 µM.

`O=C(O)/C=C/C(=O)N1CCc2cc(S(=O)(=O)N3CCN(c4cccc(Cl)c4)CC3)ccc21` [JHE-01-129A] gave an IC50 [1] of 2.8 µM.

`O=C(O)CCC(=O)N1CCCc2cc(S(=O)(=O)N3CCN(c4cccc(Cl)c4)CC3)ccc21` [JHE-02-023] showed an IC50 ([1]; Table 1, DiFMUP assay) of 37.3 ± 5.3 µM.

`O=C(Nc1cccc(Cl)c1)N1CCc2cc(S(=O)(=O)N3CCN(c4cccc(Cl)c4)CC3)ccc21` [JHE-02-032A] gave an IC50 [1] of 8.3 µM.

`COc1cccc(NC(=O)N2CCc3cc(S(=O)(=O)N4CCN(c5cccc(Cl)c5)CC4)ccc32)c1` [JHE-02-032B] showed an IC50 [1] of 4.8 µM.

`COc1cccc(C(=O)N2CCc3cc(S(=O)(=O)N4CCN(c5cccc(Cl)c5)CC4)ccc32)c1` [JHE-02-035A] was tested, and the IC50 [1] was 7.8 µM.

For `O=C1Nc2ccc(S(=O)(=O)NCc3ccc(F)cc3)cc2/C1=N/Nc1cccc(C(=O)O)c1` [SPI-112, (Z)-3-(2-(5-(N-(4-fluorobenzyl)sulfamoyl)-2-oxoindolin-3-ylidene)hydrazinyl)benzoic acid], the “effect on EGF-stimulated Shp2 PTP activity” value [2] was “did not affect”, the “effect on Shp2^E76K PTP activity in treated cells” value [3] was “no decrease” and the IC50 [1] was 2.6 µM.

With `COC(=O)c1cccc(N/N=C2\C(=O)Nc3ccc(S(=O)(=O)NCc4ccc(F)cc4)cc32)c1` [SPI-112Me, (Z)-3-(2-(5-(N-(4-fluorobenzyl)sulfamoyl)-2-oxoindolin-3-ylidene) hydrazinyl)benzoic acid methyl ester] the “reduction of EGF-stimulated Shp2 PTP activity” value ([2]; 20 μM pretreatment, EGF 50 ng/ml, 10 min) was 77%, the “effect on Shp2^E76K PTP activity in treated cells” value ([3]; GM-CSF-free medium) was “lower Shp2^E76K PTP activity” and the IC50 [1] was over 100 µM.

For `O=C(O)CCC(=O)N1CCc2cc(S(=O)(=O)N3CCN(c4ccc(F)cc4)CC3)ccc21` [XW2-011B], the IC50 [1] was 47.8 µM.

`Cc1cccc(N2CCN(S(=O)(=O)c3ccc4c(c3)CCN4C(=O)CCC(=O)O)CC2)c1` [XW2-057] showed an IC50 ([1]; Table 1, DiFMUP assay) of 3.4 ± 2.3 µM.

`O=C(O)CCC(=O)N1CCc2cc(S(=O)(=O)N3CCN(c4ccc(C(=O)O)cc4)CC3)ccc21` [XW3-002] gave an IC50 ([1]; Table 1, DiFMUP assay) of 6.1 ± 1.8 µM.

B1: IFN-γ: interferon gamma used to stimulate HT-29 cells, alone or combined with SPI-112Me (protein, UniProt P01579 24-161, looked up)
Interferon gamma: QDPYVKEAENLKKYFNAGHSDVADNGTLFLGILKNWKEESDRKIMQSQIVSFYFKLFKNFKDDQSIQKSVETIKEDMNVKFFNSNKKKRDDFEKLTNYSVTDLNVQRKAIHELIQVMAELSPAAKTGKRKRSQMLFRG
For B1, the “activation of ISRE luciferase activity” value [4] was 26% and the fraction of inhibition [5] was 0.18.

Source: US8623906B2, “Carboxy isatin hydrazones and their esters as Shp2 inhibitors” (H. Lee Moffitt Cancer Center and Research Institute, Inc., priority 2009, dated 2014)
